Reference: PubChem BioAssay AID330 (DTP/NCI, 2004)
Where “and” joins values, the source holds several entries; their conditions need not be identical. Equal values may be shown once. Toxic doses and inconclusive results are not listed.

System: P388 leukemia ip, CD2F1 mice, survival T/C
Assay: NCI In Vivo Anticancer Drug Screen. Data for tumor model P388 Leukemia (intraperitoneal) in CD2F1 (CDF1) mice
Details: endpoint: median survival time, higher = longer survival
In short: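 Mice carrying the transplanted tumor received test compound or vehicle. Survival was recorded in each group, and the value is the treated-group measurement divided by that of the vehicle-treated control group.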

[1] = dose: 50.0 mg/kg/injection, schedule: Q01DX009 (ip), vehicle: Klucel (hydroxypropylcellulose) (HPC)
[2] = dose: 100.0 mg/kg/injection, schedule: Q01DX009 (ip), vehicle: Klucel (hydroxypropylcellulose) (HPC)
[3] = dose: 50.0 mg/kg/injection, schedule: Q01DX005 (ip), vehicle: Klucel (hydroxypropylcellulose) (HPC)
[4] = dose: 100.0 mg/kg/injection, schedule: Q01DX005 (ip), vehicle: Klucel (hydroxypropylcellulose) (HPC)
[5] = dose: 200.0 mg/kg/injection, schedule: Q01DX005 (ip), vehicle: Klucel (hydroxypropylcellulose) (HPC)
[6] = dose: 25.0 mg/kg/injection, schedule: Q01DX009 (ip), vehicle: saline with Tween-80
[7] = dose: 50.0 mg/kg/injection, schedule: Q01DX009 (ip), vehicle: saline with Tween-80
[8] = dose: 100.0 mg/kg/injection, schedule: Q01DX009 (ip), vehicle: saline with Tween-80
[9] = dose: 6.25 mg/kg/injection, schedule: Q01DX005 (ip), vehicle: Klucel (hydroxypropylcellulose) (HPC)
[10] = dose: 12.5 mg/kg/injection, schedule: Q01DX005 (ip), vehicle: Klucel (hydroxypropylcellulose) (HPC)
[11] = dose: 25.0 mg/kg/injection, schedule: Q01DX005 (ip), vehicle: Klucel (hydroxypropylcellulose) (HPC)
[12] = dose: 200.0 mg/kg/injection, schedule: Q01DX009 (ip), vehicle: saline with Tween-80
[13] = dose: 50.0 mg/kg/injection, schedule: Q01DX005 (ip), vehicle: saline with Tween-80
[14] = dose: 100.0 mg/kg/injection, schedule: Q01DX005 (ip), vehicle: saline with Tween-80

For `S=C(C(=S)N1CCOCC1)N1CCOCC1`, the T/C (dose: 25.0 mg/kg/injection, schedule: Q01DX009 (ip), vehicle: Klucel (hydroxypropylcellulose) (HPC)) was 110 % of control, the T/C (dose: 50.0 mg/kg/injection, schedule: Q01DX001 (ip), vehicle: saline) was 100 % of control and the T/C [1] was 99 % of control and 101 % of control and 112 % of control. For the same molecule, the T/C (dose: 100.0 mg/kg/injection, schedule: Q01DX001 (ip), vehicle: saline) was 107 % of control, the T/C [2] was 101 % of control and 114 % of control and the T/C (dose: 200.0 mg/kg/injection, schedule: Q01DX001 (ip), vehicle: saline) was 112 % of control. For the same molecule, the T/C (dose: 200.0 mg/kg/injection, schedule: Q01DX009 (ip), vehicle: Klucel (hydroxypropylcellulose) (HPC)) was 103 % of control and 110 % of control and 123 % of control.

For `CCCCN1C(=O)CC(SC2CC(=O)N(CCCC)C2=O)C1=O` (stereo not drawn), the T/C [3] was 97 % of control, the T/C [4] was 86 % of control and the T/C [5] was 103 % of control.

`COC(=O)[C@H]1O[C@H]1c1ccccn1` was tested, and the T/C (dose: 25.0 mg/kg/injection, schedule: Q01DX005 (ip), vehicle: distilled water + alcohol) was 103 % of control, the T/C (dose: 50.0 mg/kg/injection, schedule: Q01DX005 (ip), vehicle: distilled water + alcohol) was 106 % of control and the T/C (dose: 100.0 mg/kg/injection, schedule: Q01DX005 (ip), vehicle: distilled water + alcohol) was 99 % of control. For the same molecule, the T/C (dose: 200.0 mg/kg/injection, schedule: Q01DX005 (ip), vehicle: distilled water + alcohol) was 107 % of control.

With `O=P(=O)OP(=O)=O.[O]=[W](=[O])=[O]` the T/C [6] was 100 % of control, the T/C [7] was 100 % of control and the T/C [8] was 95 % of control.

For `COc1cccc2c1C(=O)c1c(O)c3c(c(O)c1C2=O)C[C@@](O)(C(=O)COC(=O)c1ccccc1)C[C@@H]3OC1CC(N)C(O)C(C)O1` (stereo partly drawn), the T/C (dose: 0.5 mg/kg/injection, schedule: Q01DX009 (ip), vehicle: saline sonified) was 168 % of control, the T/C (dose: 1.0 mg/kg/injection, schedule: Q01DX009 (ip), vehicle: saline sonified) was 186 % of control and the T/C (dose: 2.0 mg/kg/injection, schedule: Q01DX009 (ip), vehicle: saline sonified) was 190 % of control.

For `CC1OC(O[C@@H]2OC=C(C=O)[C@@]3(O)CC[C@H](C)[C@@H]23)C(O)C(O)C1O` (stereo partly drawn), the T/C [9] was 100 % of control, the T/C [10] was 116 % of control and the T/C [11] was 95 % of control. For the same molecule, the T/C [3] was 87 % of control.

In the case of `CCOc1ccc(N=c2ccn3ccccc3c2)cc1`, the T/C (dose: 6.25 mg/kg/injection, schedule: Q01DX009 (ip), vehicle: saline with Tween-80) is reported as 102 % of control, the T/C (dose: 12.5 mg/kg/injection, schedule: Q01DX009 (ip), vehicle: saline with Tween-80) is reported as 110 % of control and the T/C [6] is reported as 111 % of control.

With `CCOC1OCN(c2ccc(Cl)cc2)CC1(C)C` (stereo not drawn) the T/C [6] was 111 % of control, the T/C [7] was 106 % of control and 107 % of control and 93 % of control and the T/C [8] was 100 % of control and 119 % of control. The T/C [12] was 101 % of control and 116 % of control and the T/C (dose: 400.0 mg/kg/injection, schedule: Q01DX009 (ip), vehicle: saline with Tween-80) was 100 % of control and 110 % of control.

For `CC(C)N(C)N=Nc1ccc(C(N)=O)cc1`, the T/C [1] was 114 % of control and 120 % of control and the T/C [2] was 113 % of control.

In the case of `COC(=O)c1nn2c(=O)n(C(C)=O)c3ccccc3c2c1C(=O)OC`, the T/C (dose: 60.0 mg/kg/injection, schedule: Q01DX005 (ip), vehicle: saline with Tween-80) is reported as 108 % of control, the T/C (dose: 120.0 mg/kg/injection, schedule: Q01DX005 (ip), vehicle: saline with Tween-80) is reported as 109 % of control and the T/C (dose: 240.0 mg/kg/injection, schedule: Q01DX005 (ip), vehicle: saline with Tween-80) is reported as 108 % of control.

For `COC(=O)C1=CO[C@@H](OC2OC(CO)C(O)C(O)C2O)[C@H]2[C@@H](C)[C@@H](O)[C@@H](O)[C@@H]12` (stereo partly drawn), the T/C (dose: 5.25 mg/kg/injection, schedule: Q01DX005 (ip), vehicle: Klucel (hydroxypropylcellulose) (HPC)) was 100 % of control, the T/C (dose: 10.5 mg/kg/injection, schedule: Q01DX005 (ip), vehicle: Klucel (hydroxypropylcellulose) (HPC)) was 95 % of control and the T/C (dose: 21.0 mg/kg/injection, schedule: Q01DX005 (ip), vehicle: Klucel (hydroxypropylcellulose) (HPC)) was 104 % of control. The T/C (dose: 42.0 mg/kg/injection, schedule: Q01DX005 (ip), vehicle: Klucel (hydroxypropylcellulose) (HPC)) was 99 % of control.

For `CC(N)C(=O)NC(C(=O)O)C(C)C` (stereo not drawn), the T/C [6] was 102 % of control, the T/C (dose: 50.0 mg/kg/injection, schedule: Q01DX005 (ip), vehicle: saline) was 93 % of control and the T/C [7] was 100 % of control. For the same molecule, the T/C (dose: 100.0 mg/kg/injection, schedule: Q01DX005 (ip), vehicle: saline) was 100 % of control, the T/C [8] was 96 % of control and the T/C (dose: 200.0 mg/kg/injection, schedule: Q01DX005 (ip), vehicle: saline) was 98 % of control. The T/C [12] was 111 % of control.

With `C/C(=N/NC(=S)N1CC2CCC(CC2)C1)c1cnccn1` the T/C (dose: 6.25 mg/kg/injection, schedule: Q01DX005 (ip), vehicle: saline with Tween-80) was 102 % of control and the T/C (dose: 12.5 mg/kg/injection, schedule: Q01DX005 (ip), vehicle: saline with Tween-80) was 117 % of control.

`NC(=O)CCCC(C(N)=O)c1ccccc1` (stereo not drawn) was tested, and the T/C (dose: 100.0 mg/kg/injection, schedule: Q01DX001 (ip), vehicle: Klucel (hydroxypropylcellulose) (HPC)) was 100 % of control, the T/C (dose: 200.0 mg/kg/injection, schedule: Q01DX001 (ip), vehicle: Klucel (hydroxypropylcellulose) (HPC)) was 105 % of control and the T/C (dose: 400.0 mg/kg/injection, schedule: Q01DX001 (ip), vehicle: Klucel (hydroxypropylcellulose) (HPC)) was 99 % of control.

For `NC(=S)N/N=C\Cn1cc([N+](=O)[O-])c(=O)[nH]c1=O`, the T/C [3] was 101 % of control and the T/C [4] was 87 % of control.

`Clc1ccc(/C=C/c2ccccn2)cc1` was tested, and the T/C [13] was 91 % of control, the T/C [14] was 90 % of control and the T/C (dose: 200.0 mg/kg/injection, schedule: Q01DX005 (ip), vehicle: saline with Tween-80) was 91 % of control.

`COc1cc(Br)cc(/C=C(\C)[N+](=O)[O-])c1O` was tested, and the T/C (dose: 12.5 mg/kg/injection, schedule: Q04DX003 (ip), vehicle: saline) was 101 % of control, the T/C (dose: 25.0 mg/kg/injection, schedule: Q04DX003 (ip), vehicle: saline) was 99 % of control and 108 % of control and the T/C (dose: 50.0 mg/kg/injection, schedule: Q04DX003 (ip), vehicle: saline) was 104 % of control and 110 % of control. For the same molecule, the T/C (dose: 100.0 mg/kg/injection, schedule: Q04DX003 (ip), vehicle: saline) was 104 % of control.

`COc1ccc(Cc2cc(N=O)c(OC)cc2O)cc1` was tested, and the T/C [13] was 90 % of control and the T/C [14] was 87 % of control.

For `CCc1cc2c(=O)[nH]c(-c3cccnc3)nc2s1`, the T/C [3] was 106 % of control, the T/C [4] was 100 % of control and the T/C [5] was 88 % of control.

For `OC1CCCSc2ccccc21` (stereo not drawn), the T/C [6] was 100 % of control and 95 % of control, the T/C (dose: 50.0 mg/kg/injection, schedule: Q01DX009 (ip), vehicle: saline + alcohol) was 99 % of control and the T/C [7] was 100 % of control and 97 % of control. The T/C (dose: 100.0 mg/kg/injection, schedule: Q01DX009 (ip), vehicle: saline + alcohol) was 96 % of control, the T/C [8] was 98 % of control and the T/C (dose: 200.0 mg/kg/injection, schedule: Q01DX009 (ip), vehicle: saline + alcohol) was 105 % of control. The T/C [12] was 118 % of control and the T/C (dose: 400.0 mg/kg/injection, schedule: Q01DX009 (ip), vehicle: saline + alcohol) was 103 % of control.

In the case of `CN(C)c1ccc(C(c2cc3c(cc2O)OCO3)N2CCN(C(c3ccc(N(C)C)cc3)c3cc4c(cc3O)OCO4)CC2)cc1` (stereo not drawn), the T/C (dose: 60.0 mg/kg/injection, schedule: Q01DX005 (ip), vehicle: saline) is reported as 96 % of control, the T/C (dose: 120.0 mg/kg/injection, schedule: Q01DX005 (ip), vehicle: saline) is reported as 100 % of control and the T/C (dose: 240.0 mg/kg/injection, schedule: Q01DX005 (ip), vehicle: saline) is reported as 99 % of control.

With `C=C(C)C(=O)OCC1CO1` (stereo not drawn) the T/C (dose: 50.0 mg/kg/injection, schedule: Q01DX009 (ip), vehicle: water) was 100 % of control, the T/C (dose: 100.0 mg/kg/injection, schedule: Q01DX009 (ip), vehicle: water) was 108 % of control and the T/C (dose: 200.0 mg/kg/injection, schedule: Q01DX009 (ip), vehicle: water) was 120 % of control.

For `O=S1(=O)CCC2C1C1(Cl)C(Cl)=C(Cl)C2(Cl)C1(Cl)Cl` (stereo not drawn), the T/C (dose: 6.25 mg/kg/injection, schedule: Q01DX009 (ip), vehicle: saline) was 100 % of control, the T/C (dose: 12.5 mg/kg/injection, schedule: Q01DX009 (ip), vehicle: saline) was 100 % of control and the T/C (dose: 25.0 mg/kg/injection, schedule: Q01DX009 (ip), vehicle: saline) was 100 % of control.

In the case of `C[CH2][Sn]([CH2]C)([O]C(=O)c1ccc2c(c1)OC(C)(C)O2)[O]C(=O)c1ccc2c(c1)OC(C)(C)O2`, the T/C [9] is reported as 117 % of control, the T/C [10] is reported as 116 % of control and the T/C [11] is reported as 120 % of control. For the same molecule, the T/C [3] was 124 % of control.
